According to the Deep4Chem optical property database:
“And” between values parts separate entries of the source, which are not always exact repeats. Equal values may be shown once.

Assay: solvent given as SMILES

Compound: CC(=O)Nc1ccc(/C=C2\OC(=O)c3cc(N)ccc32)cc1
- emission maximum (in CC#N): 455.79 nm
- emission maximum (in CC(C)=O): 453.31 nm
- emission maximum (in CC(C)CO): 482.86 nm
- emission maximum (in CC(C)O): 483.09 nm
- emission maximum (in CCCO): 484.26 nm
- emission maximum (in CCO): 485.91 nm
- emission maximum (in CCOC(C)=O): 443.66 nm
- emission maximum (in CCOCC): 429.92 nm
- emission maximum (in CO): 490.2 nm

Compound: CC(C)(C)c1cc(C#Cc2ccc3c(C#Cc4cc(C(C)(C)C)cc(C(C)(C)C)c4)cc4c5cc(C#Cc6cc(C(C)(C)C)cc(C(C)(C)C)c6)ccc5c(C#Cc5cc(C(C)(C)C)cc(C(C)(C)C)c5)cc4c3c2)cc(C(C)(C)C)c1
- emission maximum (in ClCCl): 439 nm

Compound: COc1ccc(-c2oc3cccc4c5c(-c6ccc(OC)c(OC)c6)c(=N)oc6cccc(c2c34)c65)cc1OC
- emission maximum (in ClC(Cl)Cl): 510 nm

Compound: CC(C)[Si](C#Cc1ccc(C#C[Si](C(C)C)(C(C)C)C(C)C)c2nc3c4ccccc4c(=O)c4ccccc4c3nc12)(C(C)C)C(C)C
- emission maximum (in ClCCl): 455 nm

Compound: COc1ccc2c(c1)c1cc(OC)ccc1c1c2ccc2cccc(C(=O)NC(C)(C)C)c21
- emission maximum (in ClCCl): 415 nm

Compound: CC[n+]1nc2cc3c4c(c2c2cc(C)ccc21)CCCN4CCC3
- emission maximum (in O): 571 nm

Compound: CN(C)c1ccc2nc(-c3ccccc3)sc2c1
- emission maximum (in C1CCCCC1): 393 nm
- emission maximum (in CC#N): 474 nm and 475 nm
- emission maximum (in CC(C)O): 468 nm and 488.03 nm
- emission maximum (in CO): 484 nm and 483 nm
- emission maximum (in CS(C)=O): 486 nm and 486.82 nm
- emission maximum (in ClC(Cl)Cl): 442 nm and 443 nm
- emission maximum (in c1ccccc1): 429 nm and 441.38 nm

Compound: CCOC(=O)COc1ccc(C(c2c(C)[nH]c3ccccc23)c2c(C)[nH]c3ccccc23)cc1OC
- emission maximum (in C1CCCCC1): 329 nm
- emission maximum (in CC#N): 340 nm
- emission maximum (in CO): 345 nm
- emission maximum (in O): 350 nm

Compound: CCC/N=C/c1cc2ccc(N(C)C)cc2cc1OC
- emission maximum (in C1CCOC1): 429 nm
- emission maximum (in CC#N): 448 nm
- emission maximum (in CC(C)O): 547 nm
- emission maximum (in CCOC(C)=O): 441 nm
- emission maximum (in CN(C)C=O): 449 nm
- emission maximum (in CS(C)=O): 456 nm
- emission maximum (in Cc1ccccc1): 418 nm
- emission maximum (in ClCCl): 434 nm
- emission maximum (in O): 556 nm

Compound: Cc1cc(=O)oc2cc3c4ccccc4c4ccccc4c3cc12
- emission maximum (in C1CCOC1): 410 nm
- emission maximum (in CC#N): 419 nm
- emission maximum (in CO): 420 nm
- emission maximum (in CS(C)=O): 418 nm
- emission maximum (in Cc1ccccc1): 410 nm
- emission maximum (in ClC(Cl)Cl): 415 nm

Compound: Fc1ccc2cc3cccc[n+]3cc2c1
- emission maximum (in O): 408 nm

Compound: C=Cc1ccc(-c2ccc(-c3nnc(-c4ccc(-c5nnc(-c6ccc(-c7ccc(C=C)cc7)s6)o5)cc4)o3)s2)cc1
- emission maximum (in C1COCCO1): 397 nm
- emission maximum (in CC#N): 400 nm
- emission maximum (in CC(=O)N(C)C): 407 nm
- emission maximum (in CCCCCCCCCCO): 399 nm
- emission maximum (in CCCCCCCCO): 400 nm
- emission maximum (in CCCCCCO): 399 nm
- emission maximum (in CCCCO): 400 nm
- emission maximum (in CCO): 400 nm
- emission maximum (in CS(C)=O): 423 nm
- emission maximum (in Cc1ccccc1): 399 nm
- emission maximum (in ClC(Cl)Cl): 398 nm

Compound: CC(C)(C)c1ccc(C2=c3sc(-c4ccc(C(C)(C)C)cc4)cc3=[N+]3C2=Nc2c(-c4ccc(C(C)(C)C)cc4)c4sc(-c5ccc(C(C)(C)C)cc5)cc4n2[B-]3(F)F)cc1
- emission maximum (in ClC(Cl)Cl): 793 nm

Compound: N#Cc1ccccc1N1c2ccccc2C(c2ccccc2)(c2ccccc2)c2ccccc21
- emission maximum (in Cc1ccccc1): 441 nm

Compound: CCCN1c2ccccc2Sc2cc(/C=C\c3cc(=O)oc4cc(NC(=O)OCC)ccc34)ccc21
- emission maximum (in ClC(Cl)Cl): 635 nm

Compound: C=CC(=O)Oc1ccc2cc(C=C)c(=O)oc2c1
- emission maximum (in CC#N): 430 nm

Compound: C(S/C=C/c1ccc(-c2ccc(/C=C/SC=C3CCCCC3)cc2)cc1)=C1CCCCC1
- emission maximum (in ClCCl): 433 nm

Compound: N#Cc1cc(-n2c3ccccc3c3ccccc32)c(-n2c3ccccc3c3ccccc32)cc1C#N
- emission maximum (in C1CCOC1): 501 nm
- emission maximum (in Cc1ccccc1): 473 nm
- emission maximum (in c1ccc2c(c1)c1ccccc1n2-c1ccc(-c2ccc(-n3c4ccccc4c4ccccc43)cc2)cc1): 474 nm

Compound: N#Cc1cccc2c(N)c(-c3nn([C@H]4C[C@H](O)[C@@H](CO)O4)c4ncnc(N)c34)ccc12
- emission maximum (in C1COCCO1): 488 nm
- emission maximum (in CC#N): 513 nm
- emission maximum (in CC(C)O): 514 nm
- emission maximum (in CCO): 520 nm
- emission maximum (in CCOC(C)=O): 494 nm
- emission maximum (in CN(C)C=O): 524 nm
- emission maximum (in CO): 527 nm
- emission maximum (in CS(C)=O): 534 nm
- emission maximum (in OCC(O)CO): 522 nm
- emission maximum (in OCCO): 529 nm

Compound: CC(C)(C)c1ccc(Oc2cc3c4c(cc(Oc5ccc(C(C)(C)C)cc5)c5c6c(Oc7ccc(C(C)(C)C)cc7)cc7c8c(cc(Oc9ccc(C(C)(C)C)cc9)c(c2c45)c86)C(=O)N(c2ccccc2)C7=O)C(=O)N(c2ccccc2)C3=O)cc1
- emission maximum (in ClC(Cl)Cl): 617 nm

Compound: Fc1c(F)c(F)c([B-]2(c3c(F)c(F)c(F)c(F)c3F)Oc3c(ccc4c5c(ccc34)C=[N+](c3ccccc3)[B-](c3c(F)c(F)c(F)c(F)c3F)(c3c(F)c(F)c(F)c(F)c3F)O5)C=[N+]2c2ccccc2)c(F)c1F
- emission maximum (in C1CCOC1): 578 nm
- emission maximum (in CC#N): 577 nm
- emission maximum (in CC(C)=O): 578 nm
- emission maximum (in Cc1ccccc1): 580 nm
- emission maximum (in ClCCl): 580 nm

Compound: COc1ccccc1C1=C2C(C)=CC(C)=[N+]2[B-](F)(F)n2c(C)cc(C)c21
- emission maximum (in C1CCOC1): 516 nm
- emission maximum (in CC#N): 512 nm
- emission maximum (in CC(=O)C(C)(C)C): 514 nm
- emission maximum (in CC(C)=O): 513 nm
- emission maximum (in CCCCCC): 516 nm
- emission maximum (in CCOC(C)=O): 514 nm
- emission maximum (in CO): 514 nm

Compound: Cc1cc2c3ccccc3n(C)c2c2c1c1ccccc1n2C
- emission maximum (in ClCCl): 391 nm

Compound: CC(C)(C)c1ccc2c(c1)c1cc(C(C)(C)C)ccc1n2-c1ccc(C#Cc2ccc3c4ccc(C#Cc5ccc(C=C(C#N)C#N)cc5)cc4n(-c4ccc(C(F)(F)F)cc4)c3c2)cc1
- emission maximum (in ClCCl): 454 nm

Compound: COc1ccc(-c2nc(/C(C#N)=C/c3ccc(Cl)cc3)sc2-c2ccc(OC)cc2)cc1
- emission maximum (in CC#N): 553 nm

Compound: O=S(=O)(c1ccc(N(c2ccccc2)c2ccccc2)cc1)c1ccc(N(c2ccccc2)c2ccccc2)cc1
- emission maximum (in Cc1ccccc1): 402 nm
- emission maximum (in O=P(c1ccccc1)(c1ccccc1)c1ccccc1Oc1ccccc1P(=O)(c1ccccc1)c1ccccc1): 421 nm

Compound: CCCCCCCCCCn1c(-c2cc(-c3nc4ccc(C)cc4n3CCCCCCCCCC)cc(-c3nc4ccc(C)cc4n3CCCCCCCCCC)c2)nc2ccc(C)cc21
- emission maximum (in C1CCOC1): 379.1 nm

Compound: N#Cc1nn(-c2ccccc2)nc1N1CCCC1
- emission maximum (in CC#N): 423 nm

Compound: CC1(C)c2ccccc2N(c2ccc3c(c2)C(c2ccccc2)(c2ccccc2)c2cc(N4c5ccccc5C(C)(C)c5ccccc54)ccc2S3(=O)=O)c2ccccc21
- emission maximum (in Cc1ccccc1): 448 nm

Compound: CCCOc1ccc(/C=C/C=C/C=C/c2ccc([N+](=O)[O-])cc2)cc1
- emission maximum (in CC1CCCCC1): 488 nm
- emission maximum (in CC#N): 747 nm
- emission maximum (in Cc1ccccc1): 546 nm
- emission maximum (in ClCCl): 699 nm

Compound: C(=C\c1cc2ccccc2c2ccccc12)/c1c2ccccc2cc2ccccc12
- emission maximum (in C1CCOC1): 510 nm

Compound: c1ccc(-n2c3ccccc3c3cc(C4(c5ccc6c(c5)c5ccccc5n6-c5ccccc5)c5cc(-c6ccc7ccc8cccc9ccc6c7c89)ccc5-c5ccc(-c6ccc7ccc8cccc9ccc6c7c89)cc54)ccc32)cc1
- emission maximum (in ClCCl): 423 nm

Compound: COc1ccc(-c2oc3cccc4c5c(-c6ccc(OC)cc6)/c(=N/S(=O)(=O)C(F)(F)F)oc6cccc(c2c34)c65)cc1
- emission maximum (in ClC(Cl)Cl): 612 nm

Compound: COc1ccc(-c2cnc(-c3cccnc3)o2)cc1OC
- emission maximum (in ClCCl): 420 nm

Compound: COc1ccc(/C=C/c2cc(/C=C/c3ccc(OC)cc3)nc(/C=C/c3ccc(N(c4ccccc4)c4ccccc4)cc3)n2)cc1
- emission maximum (in C1CCOC1): 511 nm
- emission maximum (in CC#N): 627 nm
- emission maximum (in CC(C)=O): 572 nm
- emission maximum (in CCCCCCC): 439 nm
- emission maximum (in CS(C)=O): 622 nm
- emission maximum (in Cc1ccccc1): 466 nm
- emission maximum (in ClCCl): 558 nm

Compound: CCN1C(=CC2=C([O-])C(=Cc3sc4ccccc4[n+]3CC)C2=O)Sc2ccccc21
- emission maximum (in CO): 663 nm
- emission maximum (in ClC(Cl)Cl): 687 nm

Compound: CN(C)c1ccc(/C=C/c2ccnc(/C=C/c3ccc(N(C)C)cc3)n2)cc1
- emission maximum (in C1CCOC1): 484 nm
- emission maximum (in CC#N): 513 nm
- emission maximum (in CC(C)=O): 523 nm
- emission maximum (in CCCCCCC): 433 nm
- emission maximum (in CS(C)=O): 527 nm
- emission maximum (in Cc1ccccc1): 455 nm
- emission maximum (in ClCCl): 493 nm

Compound: COc1ccc(OC)c(C(=O)O)c1
- emission maximum (in CO): 388 nm

Compound: COc1ccc(-c2c3ccccc3c(-c3ccc(OC)cc3)c3ccccc23)cc1
- emission maximum (in ClCCl): 427 nm

Compound: CCCCCCc1ccsc1-c1cc2c3cc(-c4sccc4CCCCCC)c4nc(C(F)(F)C(F)(F)C(F)(F)F)nc5c(-c6sccc6CCCCCC)cc(c6cc(-c7sccc7CCCCCC)c7nc(C(F)(F)C(F)(F)C(F)(F)F)nc1c7c26)c3c45
- emission maximum (in C1CCOC1): 627 nm

Compound: COc1ccc(C2=Cc3cc4ccccc4cc3P2(=O)c2ccccc2)cc1 (centres undefined)
- emission maximum (in ClCCl): 448 nm

Compound: COc1cc(N(c2ccccc2)c2ccc(C=C(C#N)C#N)c(OC)c2)ccc1C=C(C#N)C#N
- emission maximum (in C1COCCO1): 520 nm
- emission maximum (in CC#N): 571 nm
- emission maximum (in CC(C)=O): 562 nm
- emission maximum (in CCOC(C)=O): 532 nm
- emission maximum (in CN(C)C=O): 576 nm
- emission maximum (in CO): 558 nm
- emission maximum (in Cc1ccccc1): 500 nm
- emission maximum (in ClC(Cl)Cl): 524 nm
- emission maximum (in ClCCl): 534 nm

Compound: COCCOCCOCCOc1cc(C=O)c(OCCOCCOCCOC)cc1C=O
- emission maximum (in CC(C)(C)O): 478 nm
- emission maximum (in CC(C)CO): 479 nm
- emission maximum (in CC(C)O): 481 nm
- emission maximum (in CCCCO): 472 nm
- emission maximum (in CCCO): 471 nm
- emission maximum (in CCO): 465 nm
- emission maximum (in CN(C)C=O): 464 nm
- emission maximum (in CNC=O): 450 nm
- emission maximum (in CO): 467 nm
- emission maximum (in NC=O): 458 nm
- emission maximum (in O): 495 nm

Compound: COc1ccc(-c2cc3c(o2)=CC2=C(C(F)(F)F)c4cc5oc(-c6ccc(OC)cc6)cc5n4[B-](F)(F)[N+]=32)cc1
- emission maximum (in ClC(Cl)Cl): 738 nm

Compound: N#CC(C#N)=Cc1ccc(-c2cccc(-c3nc4ccccc4s3)c2O)s1
- emission maximum (in CCO): 630 nm
- emission maximum (in ClCCl): 607 nm
- emission maximum (in O): 646 nm

Compound: Cc1ccc2nc3c(=O)n(C)c(=O)nc-3n(C)c2c1
- emission maximum (in CC#N): 518 nm
